Biological target: P-glycoprotein (Homo sapiens, UniProt P08183)
Experimental: P-glycoprotein inhibition has been determined with an in vitro assay. […] Therefore, the initial pool of compounds screened included excipients that were acceptable for oral or IV use and included PEG in the chemical structure. Compounds were first screened for toxicity in the NIH3T3 cell line and then tested for P-gp inhibition with paclitaxel using the protocol outlined below:
Day 0: Seed cells and incubate.
Day 1: Add potential P-gp inhibitor at fixed concentration and paclitaxel at various concentrations and incubate for 2 days.
Day 3: Add MTT and extraction/lysis buffer.
Day 4: Read absorbance to measure cell growth. Calculate IC50 to determine amount of paclitaxel required for cell death
After calculations of IC50 values, relative rank order of the compounds were determined.

Chain of P-glycoprotein (P08183 whole entry): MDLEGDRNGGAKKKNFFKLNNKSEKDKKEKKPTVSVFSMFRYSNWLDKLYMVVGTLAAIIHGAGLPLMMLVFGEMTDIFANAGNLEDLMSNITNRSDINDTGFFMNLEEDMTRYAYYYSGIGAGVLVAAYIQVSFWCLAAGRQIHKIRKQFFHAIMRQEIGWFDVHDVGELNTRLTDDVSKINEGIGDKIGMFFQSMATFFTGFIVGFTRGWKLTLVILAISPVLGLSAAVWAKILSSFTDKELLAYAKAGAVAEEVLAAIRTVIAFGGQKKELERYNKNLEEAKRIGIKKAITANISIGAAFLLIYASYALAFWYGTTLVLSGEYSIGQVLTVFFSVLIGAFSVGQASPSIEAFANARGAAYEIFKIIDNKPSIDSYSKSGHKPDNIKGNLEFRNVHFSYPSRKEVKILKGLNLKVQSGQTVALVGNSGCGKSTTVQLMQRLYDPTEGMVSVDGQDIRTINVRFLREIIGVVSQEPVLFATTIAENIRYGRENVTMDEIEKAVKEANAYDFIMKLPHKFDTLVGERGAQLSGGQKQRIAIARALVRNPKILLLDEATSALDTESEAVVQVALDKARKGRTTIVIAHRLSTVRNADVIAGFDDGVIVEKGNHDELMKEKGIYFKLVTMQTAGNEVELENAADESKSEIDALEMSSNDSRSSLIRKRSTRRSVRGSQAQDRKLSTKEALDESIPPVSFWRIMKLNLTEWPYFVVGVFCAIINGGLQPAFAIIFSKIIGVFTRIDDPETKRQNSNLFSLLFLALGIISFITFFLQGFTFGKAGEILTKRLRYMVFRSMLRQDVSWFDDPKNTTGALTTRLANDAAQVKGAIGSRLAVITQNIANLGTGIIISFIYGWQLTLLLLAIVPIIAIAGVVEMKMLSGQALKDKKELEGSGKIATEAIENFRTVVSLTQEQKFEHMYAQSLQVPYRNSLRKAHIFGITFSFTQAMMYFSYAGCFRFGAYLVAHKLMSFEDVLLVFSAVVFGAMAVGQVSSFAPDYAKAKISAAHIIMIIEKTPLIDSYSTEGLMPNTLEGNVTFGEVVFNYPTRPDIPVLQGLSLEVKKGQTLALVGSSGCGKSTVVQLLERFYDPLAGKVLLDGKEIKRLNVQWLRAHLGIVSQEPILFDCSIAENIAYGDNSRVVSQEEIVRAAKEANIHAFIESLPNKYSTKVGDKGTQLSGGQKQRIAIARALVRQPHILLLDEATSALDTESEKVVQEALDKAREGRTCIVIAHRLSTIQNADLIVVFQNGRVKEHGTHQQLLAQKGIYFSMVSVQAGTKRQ

Row | Substance | P-gp inhibition measured by an IC50 ratio
1 | PEG-100 stearate | > 1.0
2 | polysorbate 80 | > 1.0

— patent US20040092428A1, “Oral pharmaceuticals formulation comprising paclitaxel, derivatives and methods of administration thereof” (priority 2001, published 2004)
